Literature values as cited in patent publication US7993683B2, “Compositions for the treatment of chronic degenerative inflammatory conditions” (Indena S.p.A., priority 2006, dated 2011).

Legend:
[1] = test system: pro-inflammatory cytokines
[2] = test system: TNF-induced enhancement of endothelial monocyte adesion; details: added to endothelial cell culture together with tumour necrosis factor (TNF)

Compound: C=C1CC[C@@H]2[C@](C)(CO)[C@H](O)CC[C@@]2(C)[C@@H]1C/C=C1/C(=O)OC[C@H]1O [andrographolide]
- synthesis of pro-inflammatory cytokines [1]: inhibits
- TNF-induced enhancement of endothelial monocyte adesion [2]: concentration depended reduction
